Reference: US20220340899A1, “STEREOSELECTIVE PH RESPONSIVE PEPTIDE DENDRIMERS FOR NUCLEIC ACID TRANSFECTION” (UNIVERSITÄT BERN, priority 2019, published 2022)

Test system: HT-1080, PC-3, MCF-7, SH-SY5Y and Caco-2 cell lines
Test: siRNA transfection, GAPDH knock-down in five additional cell lines
Assay type: cell-based
Conditions: including SH-SY5Y and Caco-2
Method: siRNA Transfection and Protein Quantitation: HeLa, CHO, PC3, SH-SY5Y, Caco-2 and MCF-7 cells were seeded in TPP 96-well plates (Faust Laborbedarf AG, Schaffhausen) at 5×10^3 cells per well the day before transfection. The 96-well plates were coated with poly-L-Lysine (Sigma aldrich, Buchs, CH) for 1 h and dried under a flow of air in the fumehood at RT before plating HEK-293 and HT-1080 at 5×10^3 cells per well the day before transfection. Cells were always used in their exponential phase for transfection and with a number of passages between 3 to 20. The siRNA transfection complexes were formed in OptiMEM by mixing siRNA (1-20 μmol, 0.02-0.4 μL from a 50 μM Milli-Q water solution in 6.25 μL OptiMEM) with peptide dendrimers (N/P ratio of 1-100, 21-420 μmol, 0.1-3.5 μl from a 1 mg/mL Milli-Q water solution in 6.25 μL OptiMEM) or L2000 (w/w ratio of 0.5:1-2:1, 0.0665-0.266 μg, 0.0665-0.266 μL from the 1 mg/mL commercial solution in 6.25 μL OptiMEM) at room temperature for 30 minutes (12.5 μL, concentration of 80-1600 nM siRNA and 1.68-33.6 μM i.e. 12-240 μg/mL peptide dendrimers or 5.32-21.28 μg/mL L2000). […] Briefly, medium was removed, cells were lysed with 200 μL cold lysis buffer, 2-10 μL of lysis buffer from each well was taken to a new 96 well plate containing 90 μL Master Mix and fluorescence measured at λex=560 nm and λem=590 nm on a Tecan Infinite M1000 Pro plate reader.

Substance | GADPH knock-down in five additional cell lines
(kl)8(kkl)4(kll)2kk(C16)k(C16) [DMH13] | effectively transfected all five cell lines
(kl)8(kkl)4(kll)2kllll [DMH18] | effectively transfected all five cell lines
